Results as given in patent US12227743B2, “Pharmaceutical composition for treatment of diseases associated with upregulated periostin expression or periostin splice variant switching” (Osaka University, priority 2018, dated 2025).

Legend:
[1] = tested on: Luciferase-expressing mouse breast cancer (4T1-Luc) cells; assay: Pulmonary metastasis (lung luciferase activity) in nude mice after tail vein injection of transfected 4T1-Luc cells; format: in vivo; conditions: 5×10^5 transfected 4T1-Luc cells via tail vein, 5 days after injection, vs control antisense, FIG. 16
Procedure: Luciferase-expressing mouse breast cancer (4T1-Luc) cells were cultured in DMEM with 10% FBS and 1% penicillin/streptomycin. A morpholino antisense oligonucleotide designed to induce skipping of exon 17 of a mouse periostin gene was purchased from Funakoshi Co., Ltd. The nucleotide sequence of the antisense oligonucleotide is as follows.
The mouse exon 17-skipping antisense oligonucleotide targets the region of positions 21118 to 21142 of the mouse periostin gene represented by SEQ ID NO: 2.
The 4T1-Luc cells were transfected with the mouse exon 17-skipping antisense oligonucleotide or the control antisense oligonucleotide (SEQ ID NO: 6) as described in Example 1. After 2 days of culture, the cells were detached, and cell suspension was prepared. The cell suspension (containing 5×10^5 4T1-Luc cells per mouse) was injected via the tail vein to nude mice (BALB/c-nu, female, 8 to 10 weeks old) (n=3 per group). At 5 days after injection, the lung was excised from each mouse under anesthesia and homogenized. The homogenate was subjected to the measurement of luciferase activity using the Dual-Luciferase Reporter Assay System (Promega, #E1910). The Mann Whitney test (MWU) was used for comparison between the two groups.

[2] = tested on: human breast cancer cell line BT549; assay: MTS assay (number of viable cells) in transfected BT549 cells with or without paclitaxel; format: cell-based; conditions: 72 hours
Procedure: (§1) Periostin-highly-expressing human breast cancer cell line BT549 was cultured in RPMI 1640 with 10% FBS and 1% penicillin/streptomycin. The BT549 cells are a triple-negative breast cancer cell line, which is negative for estrogen receptor, progesterone receptor, and human epidermal growth factor receptor 2 (HER2).
(§2) The BT549 cells were transfected with the human exon 17-skipping antisense oligonucleotide or the human exon 21-skipping antisense oligonucleotide as described in Example 1. The cells were subsequently seeded in an amount of 5×10^3 cells/well on a 96-well plate. Similarly, the BT549 cells were transfected with the control antisense oligonucleotide and seeded on a 96-well plate as the control group. On the day after seeding, paclitaxel was added at a final concentration of 10 nM to the wells. After 72 hours of culture, cell proliferation (number of viable cells) and ATP-producing capacity (ATP quantification) were evaluated. The number of viable cells was measured using the CellTiter 96 AQueous One Solution Cell Proliferation Assay (trade name, Promega, #G3582) (MTS assay). The amount of ATP was measured using the CellTiter-Glo Luminescent Cell Viability Assay (trade name, Promega, #G7570) (ATP assay). The Tukey-Kramer test was used for intergroup comparison.

[3] = tested on: human breast cancer cell line BT549; assay: ATP assay (CellTiter-Glo, ATP production) in transfected BT549 cells with or without paclitaxel; format: cell-based; conditions: 72 hours
Procedure: as §1, §2

[4] = tested on: downstream molecules of TGF-β-induced signaling; assay: Quantitative PCR of downstream molecules of TGF-β-induced signaling in hRPTEC transfected with antisense oligonucleotide; format: cell-based, human; conditions: vs TGF-β (+) Control AS, FIG. 15
Procedure: Human renal proximal tubular epithelial cells (hRPTEC, ATCC No. PCS-400-010) were cultured in a renal epithelial cell basal medium (REBM, Cambrex Bio Science Inc.) with 10% fetal bovine serum (FBS) and 1% penicillin/streptomycin. The cells were transfected with the human exon 17-skipping antisense oligonucleotide (Pn exon 17 AS) or the control antisense oligonucleotide (Control AS) as described in Example 1. At 24 hours after transfection, the medium was replaced by a serum-free medium. At 24 hours thereafter, human TGF-β1 (PeproTech) was added to the medium, and culture was continued for additional 24 hours. After cell culture, total RNA was extracted from the cells and subjected to cDNA synthesis (see Reference Example 1). The resulting cDNA was subjected to quantitative PCR using the primers shown below to measure the expression level of the splice variant Pn1 (containing exons 17 and 21, see FIG. 1) (n=3 per group) and the mRNA expression levels of the downstream molecules of TGF-β-induced signaling (αSMA, Snail 1, TNFα, CTGF, vimentin) (n=4 per group). Statistical analysis was performed by analysis of variance and Tukey-Kramer adjustment using the JMP statistical software package.

[5] = BT549, paclitaxel 10 nM, vs control antisense transfected cells, FIG. 17B
[6] = BT549, no paclitaxel, vs control antisense transfected cells, FIG. 18A
[7] = BT549, paclitaxel 10 nM, vs control antisense transfected cells, FIG. 18B

Substance	luciferase activity in lung homogenate (pulmonary metastasis) [1]	cell proliferation (number of viable cells, MTS) ([2]; BT549, no paclitaxel, vs exon 17-skipping and control antisense transfected cells, FIG. 17A)	cell proliferation (number of viable cells, MTS) [2, 5]	ATP production [3, 6]	ATP production ([3]; BT549, no paclitaxel, vs exon 17-skipping antisense transfected cells, FIG. 18A)	ATP production [3, 7]	ATP production ([3]; BT549, paclitaxel 10 nM, vs exon 17-skipping antisense transfected cells, FIG. 18B)	CTGF mRNA expression, TGF-β induction [4]	Snail 1 mRNA expression, TGF-β induction [4]	TNFα mRNA expression, TGF-β induction [4]	Vimentin mRNA expression, TGF-β induction [4]	αSMA mRNA expression, TGF-β induction [4]
mouse exon 17-skipping antisense oligonucleotide: Morpholino antisense oligonucleotide 5′-TGCTGAAAACATAGAAAGTGGAGCA-3′ designed to induce skipping of exon 17 of a mouse periostin gene (all phosphorodiamidate morpholino (PMO))	very low											
exon 21-skipping antisense oligonucleotide: Morpholino antisense oligonucleotide 5′-TTGTTGTCCTTTTACTAACCTCCCT-3′ designed to induce skipping of exon 21 of a human periostin gene (all phosphorodiamidate morpholino (PMO))		significant reduction	significant reduction	significant reduction	significant reduction	significant reduction	significant reduction					
exon 17-skipping antisense oligonucleotide: Morpholino antisense oligonucleotide 5′-CCATGTATAACATTGATTTTTACCTTCAGT-3′ designed to induce skipping of exon 17 of a human periostin gene (all phosphorodiamidate morpholino (PMO))			significant reduction	significant reduction		significant reduction		significantly suppressed	significantly suppressed	significantly suppressed	significantly suppressed	significantly suppressed
